Tests used:
[1] = tested on: control sera (pooled serum of ten healthy LUMC hospital workers; commercial negative donor pooled serum from the Dutch bloodbank); assay type: binding, human; set-up: Binding of Control serum LUMC to linear peptides / Binding of Control serum Blood-bank to linear peptides / Binding of Control serum LUMC to looped peptides / Binding of Control Serum Blood-Bank to Looped peptides / Binding of Control serum LUMC to linear peptides of the protein M of SARS-CoV Urbani / Binding of Control serum Blood-bank to linear peptides of the protein M of SARS-CoV Urbani / Binding of Control serum LUMC to looped peptides of the protein M of SARS-CoV Urbani / Binding of Control Serum Blood-Bank to Looped peptides of the protein M of SARS-CoV Urbani: unit not given here
[2] = tested on: antibodies in sera from SARS patients (sera 1a, 1b, 2, 6, 37, 62, London, SARS-yellow, SARS-green); assay type: binding, human; set-up: Binding of serum 6 to linear peptides of protein X1 of SARS-CoV Urbani / Binding of serum 37 to linear peptides of protein X1 of SARS-CoV Urbani / Binding of serum 6 to looped/cyclic peptide (PEPSCAN-ELISA) / Binding of serum 37 to looped/cyclic peptide (PEPSCAN-ELISA) / Binding of serum 37 to looped/cyclic peptides of protein X1 of SARS-CoV Urbani / Binding of serum 6 to linear peptides of protein X2 / Binding of serum 37 to linear peptides of protein X2 / Binding of serum 37 to looped/cyclic peptides of protein X2 of SARS-CoV Urbani / Binding of serum 6 to linear peptides of protein M of SARS-CoV Urbani / Binding of serum 37 to linear peptides of protein M of SARS-CoV Urbani / Binding of serum 6 to looped/cyclic peptides of protein M of SARS-CoV Urbani / Binding of serum 37 to looped/cyclic peptides of protein M of SARS-CoV Urbani / Binding of serum 6 to linear peptides of protein X3 of SARS-CoV Urbani / Binding of serum 37 to linear peptides of protein X3 of SARS-CoV Urbani / Binding of serum 37 to looped/cyclic peptides of protein X3 of SARS-CoV Urbani / Binding of serum 6 to linear peptides of protein X4 of SARS-CoV Urbani / Binding of serum 37 to linear peptides of protein X4 of SARS-CoV Urbani / Binding of serum 37 to looped/cyclic peptides of protein X4 of SARS-CoV Urbani / Binding of serum 6 to linear peptides of protein X5 of SARS-CoV Urbani / Binding of serum 37 to linear peptides of protein X5 of SARS-CoV Urbani / Binding of serum 37 to looped/cyclic peptides of protein X5 of SARS-CoV Urbani / Binding of serum 6 to linear peptides of protein N of SARS-CoV Urbani / Binding of serum 37 to linear peptides of protein N of SARS-CoV Urbani / Binding of serum 6 to linear peptide (PEPSCAN-ELISA) / Binding of serum 1a to looped/cyclic peptides of protein N of SARS-CoV Urbani / Binding of serum 1b to looped/cyclic peptides of protein N of SARS-CoV Urbani / Binding of serum 2 to looped/cyclic peptides of protein N of SARS-CoV Urbani / Binding of serum 6 to looped/cyclic peptides of protein N of SARS-CoV Urbani / Binding of serum 37 to looped/cyclic peptides of protein N of SARS-CoV Urbani / Binding of serum 62 to looped/cyclic peptides of protein N of SARS-CoV Urbani / Binding of serum London to looped/cyclic peptides of protein N of SARS-CoV Urbani / Binding of serum SARS-green to looped/cyclic peptides of protein N of SARS-CoV Urbani: unit not given here

FICNLLLLFVTTYSH
Binding of Control Serum Blood-Bank to Looped peptides [1]: 0.5
Binding of Control serum Blood-bank to linear peptides [1]: 0.6
Binding of Control serum LUMC to linear peptides [1]: 0.5
Binding of Control serum LUMC to looped peptides [1]: 0.5

GHPLGRCDIKDLPKE
Binding of Control Serum Blood-Bank to Looped peptides of the protein M of SARS-CoV Urbani [1]: 0.7
Binding of Control serum Blood-bank to linear peptides of the protein M of SARS-CoV Urbani [1]: 0.6
Binding of Control serum LUMC to linear peptides of the protein M of SARS-CoV Urbani [1]: 0.6
Binding of Control serum LUMC to looped peptides of the protein M of SARS-CoV Urbani [1]: 0.7

IAMACIVGLMWLSYF
Binding of serum 1a to linear peptides of protein M of SARS-CoV Urbani [2]: 0.6
Binding of serum 1a to looped/cyclic peptides of protein M of SARS-CoV Urbani [2]: 0.6
Binding of serum 1b to linear peptides of protein M of SARS-CoV Urbani [2]: 0.5
Binding of serum 1b to looped/cyclic peptides of protein M of SARS-CoV Urbani [2]: 0.4
Binding of serum 2 to linear peptides of protein M of SARS-CoV Urbani [2]: 0.4
Binding of serum 2 to looped/cyclic peptides of protein M of SARS-CoV Urbani [2]: 0.4
Binding of serum 6 to linear peptides of protein M of SARS-CoV Urbani [2]: 0.3
Binding of serum 6 to looped/cyclic peptides of protein M of SARS-CoV Urbani [2]: 0.7
Binding of serum 37 to linear peptides of protein M of SARS-CoV Urbani [2]: 0.3
Binding of serum 37 to looped/cyclic peptides of protein M of SARS-CoV Urbani [2]: 0.4
Binding of serum 62 to linear peptides of protein M of SARS-CoV Urbani [2]: 0.3
Binding of serum 62 to looped/cyclic peptides of protein M of SARS-CoV Urbani [2]: 0.4
Binding of serum London to linear peptides of protein M of SARS-CoV Urbani [2]: 0.3
Binding of serum London to looped/cyclic peptides of protein M of SARS-CoV Urbani [2]: 0.2
Binding of serum SARS-green to linear peptides of protein M of SARS-CoV Urbani [2]: 0.3
Binding of serum SARS-green to looped/cyclic peptides of protein M of SARS-CoV Urbani [2]: 0.3
Binding of serum SARS-yellow to linear peptides of protein M of SARS-CoV Urbani [2]: 0.2
Binding of serum SARS-yellow to looped/cyclic peptides of protein M of SARS-CoV Urbani [2]: 0.6
Binding of Control Serum Blood-Bank to Looped peptides of the protein M of SARS-CoV Urbani [1]: 0.6
Binding of Control serum Blood-bank to linear peptides of the protein M of SARS-CoV Urbani [1]: 0.5
Binding of Control serum LUMC to linear peptides of the protein M of SARS-CoV Urbani [1]: 0.6
Binding of Control serum LUMC to looped peptides of the protein M of SARS-CoV Urbani [1]: 0.7

IGVAFLAVPQSATKI
Binding of Control Serum Blood-Bank to Looped peptides [1]: 0.5
Binding of Control serum Blood-bank to linear peptides [1]: 0.8
Binding of Control serum LUMC to linear peptides [1]: 0.8
Binding of Control serum LUMC to looped peptides [1]: 0.5

MVQTGTPNVTINCQD
Binding of Control Serum Blood-Bank to Looped peptides [1]: 0.3
Binding of Control serum Blood-bank to linear peptides [1]: 0.8
Binding of Control serum LUMC to linear peptides [1]: 0.6
Binding of Control serum LUMC to looped peptides [1]: 0.3

RCWLGWKCKSKNPLL
Binding of Control Serum Blood-Bank to Looped peptides [1]: 0.7
Binding of Control serum Blood-bank to linear peptides [1]: 1.2
Binding of Control serum LUMC to linear peptides [1]: 1.0
Binding of Control serum LUMC to looped peptides [1]: 0.7

SLTSLLKTHRMCKYT
Binding of serum 1a to linear peptides of protein X2 [2]: 0.8
Binding of serum 1a to looped/cyclic peptides of protein X2 of SARS-CoV Urbani [2]: 0.3
Binding of serum 1b to linear peptides of protein X2 [2]: 0.4
Binding of serum 1b to looped/cyclic peptides of protein X2 of SARS-CoV Urbani [2]: 0.3
Binding of serum 2 to linear peptides of protein X2 [2]: 0.4
Binding of serum 2 to looped/cyclic peptides of protein X2 of SARS-CoV Urbani [2]: 0.1
Binding of serum 6 to linear peptides of protein X2 [2]: 0.4
Binding of serum 6 to looped/cyclic peptides of protein X2 of SARS-CoV Urbani [2]: 0.2
Binding of serum 37 to linear peptides of protein X2 [2]: 0.3
Binding of serum 37 to looped/cyclic peptides of protein X2 of SARS-CoV Urbani [2]: 0.2
Binding of serum 62 to linear peptides of protein X2 [2]: 0.7
Binding of serum 62 to looped/cyclic peptides of protein X2 of SARS-CoV Urbani [2]: 0.4
Binding of serum London to linear peptides of protein X2 [2]: 0.4
Binding of serum London to looped/cyclic peptides of protein X2 of SARS-CoV Urbani [2]: 0.2
Binding of serum SARS-green to linear peptides of protein X2 [2]: 0.5
Binding of serum SARS-green to looped/cyclic peptides of protein X2 of SARS-CoV Urbani [2]: 0.2
Binding of serum SARS-yellow to linear peptides of protein X2 [2]: 0.3
Binding of serum SARS-yellow to looped/cyclic peptides of protein X2 of SARS-CoV Urbani [2]: 0.3

TGTLIVNSVLLPLAF
Binding of serum 1a to linear peptides of protein E of SARS-CoV Urbani [2]: 0.7
Binding of serum 1b to linear peptides of protein E of SARS-CoV Urbani [2]: 0.5
Binding of serum 2 to linear peptides of protein E of SARS-CoV Urbani [2]: 0.3
Binding of serum 6 to linear peptides of protein E of SARS-CoV Urbani [2]: 0.6
Binding of serum 37 to linear peptides of protein E of SARS-CoV Urbani [2]: 0.7
Binding of serum 62 to linear peptides of protein E of SARS-CoV Urbani [2]: 0.6
Binding of serum London to linear peptides of protein E of SARS-CoV Urbani [2]: 0.4
Binding of serum SARS-green to linear peptides of protein E of SARS-CoV Urbani [2]: 0.4
Binding of serum SARS-yellow to linear peptides of protein E of SARS-CoV Urbani [2]: 0.2

TTVYHTTVSQIQLSL
Binding of Control Serum Blood-Bank to Looped peptides [1]: 0.6
Binding of Control serum Blood-bank to linear peptides [1]: 0.6
Binding of Control serum LUMC to linear peptides [1]: 0.7
Binding of Control serum LUMC to looped peptides [1]: 0.5
